Test results: PubChem BioAssay AID1963839 (Molecular Pharmacology Branch, DTP, NCI, 2024)

Tested on: 817829-284-R-J1-PDC complex spheroid viability
Assay: Anticancer human tumor 817829-284-R-J1-PDC patient-derived colon adenocarcinoma cell line growth inhibition [POLQ]
Conditions: for IC50: curve of first compound; for viability, T/C: stronger effect = lower value
In short: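 Patient-derived tumour cells were co-cultured with HUVEC and mesenchymal stem cells as multicellular spheroids at 37 °C. They were treated with POLQ inhibitors (novobiocin, ART-558, RP6685) alone or combined with other agents. Top concentrations were at or near clinical Cmax (otherwise 10 microM; SN-38 at 1 microM), decreasing in half-log steps.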

[1] = second compound 0.0316 µM, first compound 0.0316 µM
[2] = second compound 0.0316 µM, first compound 0.1 µM
[3] = second compound 0.0316 µM, first compound 0.316 µM
[4] = second compound 0.0316 µM, first compound 1 µM
[5] = second compound 0.0316 µM, first compound 3.16 µM
[6] = second compound 0.0316 µM, first compound 10 µM
[7] = second compound 0.1 µM, first compound 0.0316 µM
[8] = second compound 0.1 µM, first compound 0.1 µM
[9] = second compound 0.1 µM, first compound 0.316 µM
[10] = second compound 0.1 µM, first compound 1 µM
[11] = second compound 0.1 µM, first compound 3.16 µM
[12] = second compound 0.1 µM, first compound 10 µM
[13] = second compound 0.316 µM, first compound 0.0316 µM
[14] = second compound 0.316 µM, first compound 0.1 µM
[15] = second compound 0.316 µM, first compound 0.316 µM
[16] = second compound 0.316 µM, first compound 1 µM
[17] = second compound 0.316 µM, first compound 3.16 µM
[18] = second compound 0.316 µM, first compound 10 µM
[19] = second compound 1 µM, first compound 0.0316 µM
[20] = second compound 1 µM, first compound 0.1 µM
[21] = second compound 1 µM, first compound 0.316 µM
[22] = second compound 1 µM, first compound 1 µM
[23] = second compound 1 µM, first compound 3.16 µM
[24] = second compound 1 µM, first compound 10 µM
[25] = second compound 3.16 µM, first compound 0.0316 µM
[26] = second compound 3.16 µM, first compound 0.1 µM
[27] = second compound 3.16 µM, first compound 0.316 µM
[28] = second compound 3.16 µM, first compound 1 µM
[29] = second compound 3.16 µM, first compound 3.16 µM
[30] = second compound 3.16 µM, first compound 10 µM
[31] = second compound 10 µM, first compound 0.0316 µM
[32] = second compound 10 µM, first compound 0.1 µM
[33] = second compound 10 µM, first compound 0.316 µM
[34] = second compound 10 µM, first compound 1 µM
[35] = second compound 10 µM, first compound 3.16 µM
[36] = second compound 10 µM, first compound 10 µM
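Also: spheroids exposed to compounds for 7 days.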
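For viability, T/C in this document: 100% = DMSO vehicle-treated spheroids.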

O=C(Nc1ccc(O)c(NS(=O)(=O)c2ccc(F)cc2)c1)c1ccc(-c2ccccc2)cc1 + Cc1cccc(N(C)C(=O)C2C(O)CCN2c2nc(C)cc(C(F)(F)F)c2C#N)c1
IC50 (second compound 0.0316 µM): 8.08 µM | IC50 (second compound 0.1 µM): 7.5 µM | IC50 (second compound 0.316 µM): 8.91 µM | IC50 (second compound 1 µM): 6.36 µM | IC50 (second compound 3.16 µM): 5.44 µM | IC50 (second compound 10 µM): 5.2 µM | viability, T/C [1]: 110% | viability, T/C [2]: 106% | viability, T/C [3]: 113% | viability, T/C [4]: 78.7% | viability, T/C [5]: 91.2% | viability, T/C [6]: 41% | viability, T/C [7]: 98.8% | viability, T/C [8]: 79.1% | viability, T/C [9]: 106% | viability, T/C [10]: 90.5% | viability, T/C [11]: 72.6% | viability, T/C [12]: 42.5% | viability, T/C [13]: 96.3% | viability, T/C [14]: 93.2% | viability, T/C [15]: 95.9% | viability, T/C [16]: 87.9% | viability, T/C [17]: 87.6% | viability, T/C [18]: 45.5% | viability, T/C [19]: 80.6% | viability, T/C [20]: 90.5% | viability, T/C [21]: 92.4% | viability, T/C [22]: 94.7% | viability, T/C [23]: 64.8% | viability, T/C [24]: 40.4% | viability, T/C [25]: 95.6% | viability, T/C [26]: 101% | viability, T/C [27]: 102% | viability, T/C [28]: 98.9% | viability, T/C [29]: 60.8% | viability, T/C [30]: 37.9% | viability, T/C [31]: 98.4% | viability, T/C [32]: 84.5% | viability, T/C [33]: 92.5% | viability, T/C [34]: 83.7% | viability, T/C [35]: 65% | viability, T/C [36]: 30%

O=C(Nc1ccc(O)c(NS(=O)(=O)c2ccc(F)cc2)c1)c1ccc(-c2ccccc2)cc1 + COC1C(OC(N)=O)C(O)C(Oc2ccc3c(O)c(NC(=O)c4ccc(O)c(CC=C(C)C)c4)c(=O)oc3c2C)OC1(C)C
IC50 (second compound 0.0316 µM): 7.82 µM | IC50 (second compound 0.1 µM): 7.15 µM | IC50 (second compound 0.316 µM): 5.73 µM | IC50 (second compound 1 µM): 6.35 µM | IC50 (second compound 3.16 µM): 6.53 µM | IC50 (second compound 10 µM): 7.4 µM | viability, T/C [1]: 114% | viability, T/C [2]: 68.6% | viability, T/C [3]: 95.2% | viability, T/C [4]: 72.2% | viability, T/C [5]: 72.9% | viability, T/C [6]: 38.4% | viability, T/C [7]: 74.9% | viability, T/C [8]: 108% | viability, T/C [9]: 79.2% | viability, T/C [10]: 101% | viability, T/C [11]: 84% | viability, T/C [12]: 36% | viability, T/C [13]: 91.5% | viability, T/C [14]: 106% | viability, T/C [15]: 90.4% | viability, T/C [16]: 87.7% | viability, T/C [17]: 68.9% | viability, T/C [18]: 32.4% | viability, T/C [19]: 100% | viability, T/C [20]: 84.8% | viability, T/C [21]: 107% | viability, T/C [22]: 84.7% | viability, T/C [23]: 66.6% | viability, T/C [24]: 39.6% | viability, T/C [25]: 91.9% | viability, T/C [26]: 100% | viability, T/C [27]: 103% | viability, T/C [28]: 103% | viability, T/C [29]: 68.5% | viability, T/C [30]: 39.1% | viability, T/C [31]: 82.8% | viability, T/C [32]: 109% | viability, T/C [33]: 99.6% | viability, T/C [34]: 109% | viability, T/C [35]: 66.7% | viability, T/C [36]: 44.1%

Cn1ncnc1[C@H]1c2n[nH]c(=O)c3cc(F)cc(c23)N[C@@H]1c1ccc(F)cc1 + COC1C(OC(N)=O)C(O)C(Oc2ccc3c(O)c(NC(=O)c4ccc(O)c(CC=C(C)C)c4)c(=O)oc3c2C)OC1(C)C
IC50 (second compound 0.0316 µM): 0.031 µM | IC50 (second compound 0.1 µM): 0.00486 µM | IC50 (second compound 0.316 µM): 0.0198 µM | IC50 (second compound 1 µM): 0.024 µM | IC50 (second compound 3.16 µM): 0.0102 µM | IC50 (second compound 10 µM): 0.031 µM | viability, T/C (second compound 0.0316 µM, first compound 0.000316 µM): 107% | viability, T/C (second compound 0.0316 µM, first compound 0.001 µM): 63.2% | viability, T/C (second compound 0.0316 µM, first compound 0.00316 µM): 72.3% | viability, T/C (second compound 0.0316 µM, first compound 0.01 µM): 62.6% | viability, T/C [1]: 55.5% | viability, T/C [2]: 36.5% | viability, T/C (second compound 0.1 µM, first compound 0.000316 µM): 103% | viability, T/C (second compound 0.1 µM, first compound 0.001 µM): 109% | viability, T/C (second compound 0.1 µM, first compound 0.00316 µM): 52.9% | viability, T/C (second compound 0.1 µM, first compound 0.01 µM): 60.4% | viability, T/C [7]: 39.9% | viability, T/C [8]: 35.4% | viability, T/C (second compound 0.316 µM, first compound 0.000316 µM): 104% | viability, T/C (second compound 0.316 µM, first compound 0.001 µM): 94.9% | viability, T/C (second compound 0.316 µM, first compound 0.00316 µM): 74.4% | viability, T/C (second compound 0.316 µM, first compound 0.01 µM): 65.3% | viability, T/C [13]: 38% | viability, T/C [14]: 36.2% | viability, T/C (second compound 1 µM, first compound 0.000316 µM): 94.9% | viability, T/C (second compound 1 µM, first compound 0.001 µM): 107% | viability, T/C (second compound 1 µM, first compound 0.00316 µM): 85.4% | viability, T/C (second compound 1 µM, first compound 0.01 µM): 65% | viability, T/C [19]: 47.8% | viability, T/C [20]: 31.8% | viability, T/C (second compound 3.16 µM, first compound 0.000316 µM): 86.8% | viability, T/C (second compound 3.16 µM, first compound 0.001 µM): 102% | viability, T/C (second compound 3.16 µM, first compound 0.00316 µM): 97.7% | viability, T/C (second compound 3.16 µM, first compound 0.01 µM): 50.1% | viability, T/C [25]: 49.9% | viability, T/C [26]: 40.3% | viability, T/C (second compound 10 µM, first compound 0.000316 µM): 137% | viability, T/C (second compound 10 µM, first compound 0.001 µM): 124% | viability, T/C (second compound 10 µM, first compound 0.00316 µM): 69.8% | viability, T/C (second compound 10 µM, first compound 0.01 µM): 71.6% | viability, T/C [31]: 67.2% | viability, T/C [32]: 22.3%
